From US11964988B2, “Fused heterocyclic compounds as RET kinase inhibitors” (ARRAY BIOPHARMA INC., priority 2018, dated 2024)
Positions count from the first letter of the chain named.

Assays:
G810R mutant RET kinase = G810R mutant RET kinase (Homo sapiens, UniProt P07949, G810R); experiment: biochemical;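 further: HTRF KinEASE-TK enzymatic assay with 1 nM recombinant RET G810R, 1 h at 22 °C, dual-wavelength ratiometric readout, 100% control without compound, 0% from pre-quenched reactions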
Description: (§2) The potency of compounds inhibiting several different RET kinase forms (Wild Type, V804M, G810R, & G810S) were determined using CisBio's HTRF® KinEASE™-TK assay technology. […] After a 1 hour incubation at 22° C., the extent of reaction was determined using a PerkinElmer EnVision multimode plate reader via HTRF dual wavelength detection, and the percent of control (POC) was calculated using a ratiometric emission factor. One hundred POC was determined using DMSO only samples (no compound present), and 0 POC was determined using pre-quenched control reactions.
(§3) The potency of a compound inhibiting G810R or G810S mutant RET kinase was determined using CisBio's HTRF® KinEASE™-TK assay technology. The assays contained G810R or G810S mutant RET produced at Array Biopharma, Inc. (1 nM enzyme). […] After a 1-h incubation at 22° C., the extent of reaction was determined using a PerkinElmer EnVision multimode plate reader via HTRF dual wavelength detection, and the percent of control (POC) was calculated using a ratiometric emission factor. One hundred POC was determined using no test compounds, and 0 POC was determined using pre-quenched control reactions.

[1] = target: T1, HEK-293 cells expressing a Kif5b-RET fusion protein (Homo sapiens, UniProt P07949); experiment: RET Cell Assay (phospho-RET Tyr1062); format: cell-based; conditions: HEK-293 Kif5b-RET, 1 hour incubation, phospho-RET normalized to GAPDH; read-out: KIF5B-RET pTYR1062 Cell IC50
T1 construct: KIF5B (N-terminal portion incl. coiled-coil); expressed in transfected cells; host or cells: HEK-293; the other entry of the earlier key: KIF5B (P33176, Kinesin-1 heavy chain)
T1 sequence (P07949 713-1063 limits assumed): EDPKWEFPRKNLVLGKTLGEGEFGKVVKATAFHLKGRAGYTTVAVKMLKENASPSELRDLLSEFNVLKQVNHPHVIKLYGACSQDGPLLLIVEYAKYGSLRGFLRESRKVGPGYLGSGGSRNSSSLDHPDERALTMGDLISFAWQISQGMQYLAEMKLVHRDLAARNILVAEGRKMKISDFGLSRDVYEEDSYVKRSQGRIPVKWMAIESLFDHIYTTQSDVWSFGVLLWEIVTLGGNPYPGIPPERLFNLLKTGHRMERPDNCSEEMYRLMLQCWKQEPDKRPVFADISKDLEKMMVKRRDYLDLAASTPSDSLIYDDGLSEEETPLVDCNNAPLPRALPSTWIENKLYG
How it was run: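 Phospho-RET (Tyr1062) to GAPDH ratio read by in-cell fluorescent immunodetection after 1 hour compound exposure in DMEM, 0.5% DMSO. Cells: HEK-293 carrying Kif5b-RET fusion. POC data fit to a 4-parameter logistic curve, IC50 taken at 50 POC.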

RET kinase V804M = RET kinase V804M (Homo sapiens, UniProt P07949, V804M); experiment: RET Enzyme Assay (CisBio HTRF KinEASE-TK), V804M; format: biochemical; conditions: read-out: RET V804M Enz FRET IC50
Description: as §2

[2] = target: T2, HEK-293 cells expressing a G810S mutant RET Kif5b-RET fusion protein (Homo sapiens, UniProt P07949, G810S); experiment: RET G810S Mutant Cell Assay (phospho-RET Tyr1062); format: cell-based; conditions: HEK-293 Kif5b-RET G810S, 1 hour incubation, phospho-RET normalized to GAPDH
T2 construct: KIF5B (N-terminal portion incl. coiled-coil); expressed in transfected cells; host or cells: HEK-293
T2 sequence (P07949 713-1063 G810S limits assumed): T1 sequence (P07949 713-1063 limits assumed) with G98S
How it was run: (§1)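 Signals came from in-cell immunostaining of fixed, methanol-permeabilized HEK-293 fusion-expressing cells exposed 1 h to compound in DMEM with 0.5% DMSO.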

[3] = target: T3, HEK-293 cells expressing a G810R mutant RET Kif5b-RET fusion protein (Homo sapiens, UniProt P07949, G810R); experiment: RET G810R Mutant Cell Assay (phospho-RET Tyr1062); format: cell-based; conditions: HEK-293 Kif5b-RET G810R, 1 hour incubation, phospho-RET normalized to GAPDH
T3 construct: KIF5B (N-terminal portion incl. coiled-coil); expressed in transfected cells; host or cells: HEK-293; the other entry of the earlier key: KIF5B (P33176, Kinesin-1 heavy chain)
T3 sequence (P07949 713-1063 G810R limits assumed): T1 sequence (P07949 713-1063 limits assumed) with G98R
How it was run: as §1

G810S mutant RET kinase = G810S mutant RET kinase (Homo sapiens, UniProt P07949, G810S); experiment: biochemical;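 further: HTRF KinEASE-TK kinase assay with recombinant enzyme, 1 h at 22 °C, dual-wavelength ratiometric read-out, percent of control (DMSO-only = 100, pre-quenched reaction = 0)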
Description: as §2, §3

RET kinase Wild Type = RET kinase Wild Type (Homo sapiens, UniProt P07949); experiment: biochemical;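 further: HTRF kinase activity assay on RET enzyme, 1 h reaction at 22 °C, dual-wavelength readout as percent of control, DMSO-only wells as 100%, pre-quenched reactions as 0%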
Chain of RET kinase Wild Type (P07949 29-1114): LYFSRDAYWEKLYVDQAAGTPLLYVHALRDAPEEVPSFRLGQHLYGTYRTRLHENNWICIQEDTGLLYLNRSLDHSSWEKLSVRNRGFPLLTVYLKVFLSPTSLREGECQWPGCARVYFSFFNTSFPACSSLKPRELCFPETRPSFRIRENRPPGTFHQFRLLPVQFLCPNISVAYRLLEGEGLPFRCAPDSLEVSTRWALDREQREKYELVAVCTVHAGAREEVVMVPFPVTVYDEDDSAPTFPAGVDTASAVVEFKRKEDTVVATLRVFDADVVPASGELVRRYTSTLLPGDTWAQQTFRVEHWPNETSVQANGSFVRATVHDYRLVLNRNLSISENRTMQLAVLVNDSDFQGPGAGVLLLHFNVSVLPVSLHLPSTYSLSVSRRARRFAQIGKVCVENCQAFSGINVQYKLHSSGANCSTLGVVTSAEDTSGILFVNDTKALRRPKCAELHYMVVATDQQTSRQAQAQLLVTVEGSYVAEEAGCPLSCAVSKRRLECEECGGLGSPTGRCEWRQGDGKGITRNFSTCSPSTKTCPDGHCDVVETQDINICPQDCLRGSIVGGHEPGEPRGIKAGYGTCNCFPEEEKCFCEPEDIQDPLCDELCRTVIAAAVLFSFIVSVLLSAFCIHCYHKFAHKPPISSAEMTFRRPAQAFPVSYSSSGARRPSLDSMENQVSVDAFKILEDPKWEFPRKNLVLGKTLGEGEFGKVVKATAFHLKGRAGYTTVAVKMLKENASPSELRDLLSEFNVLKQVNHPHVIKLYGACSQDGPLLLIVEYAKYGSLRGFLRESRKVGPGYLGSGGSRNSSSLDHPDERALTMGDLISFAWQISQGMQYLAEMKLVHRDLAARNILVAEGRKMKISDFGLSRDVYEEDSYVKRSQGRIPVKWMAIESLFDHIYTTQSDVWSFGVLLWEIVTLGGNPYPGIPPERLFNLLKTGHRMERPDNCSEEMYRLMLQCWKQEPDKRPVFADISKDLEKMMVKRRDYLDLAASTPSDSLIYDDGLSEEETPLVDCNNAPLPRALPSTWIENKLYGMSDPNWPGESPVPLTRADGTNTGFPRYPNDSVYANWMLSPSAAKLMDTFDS

Chain of G810R mutant RET kinase (P07949 29-1114 G810R): as the sequence (P07949 29-1114) above, with G782R counted along it
Chain of G810S mutant RET kinase (P07949 29-1114 G810S): as the sequence (P07949 29-1114) above, with G782S counted along it
Chain of RET kinase V804M (P07949 29-1114 V804M): as the sequence (P07949 29-1114) above, with V776M counted along it

| SMILES | IC50 (G810R mutant RET kinase) [nM] | IC50 [1] [nM] | IC50 (RET kinase V804M) [nM] | IC50 [2] [nM] | IC50 [3] [nM] | IC50 (G810S mutant RET kinase) [nM] | IC50 (RET kinase Wild Type) [nM] |
| --- | --- | --- | --- | --- | --- | --- | --- |
| CC(C)n1c2c(c3c(N)ncnc31)-c1noc(C3CC3)c1[C@@H](O)[C@H](C)C2 (relative stereo) [Example 62, (Trans)-11-amino-3-cyclopropyl-7-isopropyl-5-methyl-4,5,6,7-tetrahydroisoxazolo[4″,3″:6′,7′]cyclohepta[1′,2′:4,5]pyrrolo[2,3-d]pyrimidin-4-ol] | 96 | 52 | 138 | 192 | 349 | 74 | 34 |
| CC(C)n1c2c(c3c(N)ncnc31)-c1noc(C3CC3)c1[C@@H](O)[C@@H](C)C2 (relative stereo) [Example 63, (Cis)-11-amino-3-cyclopropyl-7-isopropyl-5-methyl-4,5,6,7-tetrahydroisoxazolo[4″,3″:6′,7′]cyclohepta[1′,2′:4,5]pyrrolo[2,3-d]pyrimidin-4-ol] | 118 | 72 | 211 | 352 | 439 | 108 | 61 |
| CC(C)n1c2c(c3c(N)ncnc31)-c1noc(C3CC3)c1[C@@H](O)CC2 (single isomer, unassigned) [Example 54] | 70 | 22 | 41 | 92 | 103 | 54 | 13 |
| CC(C)n1c2c(c3c(N)ncnc31)-c1noc(C3CC3)c1[C@H](O)CC2 (single isomer, unassigned) [Example 55] | 31 | 10 | 21 | 40 | 46 | 29 | 8 |
| CO[C@@H]1CCc2c(c3c(N)ncnc3n2C(C)C)-c2noc(C3CC3)c21 (single isomer, unassigned) [Example 58] | 64 | 49 | 66 | 181 | 186 | 159 | 23 |
| CC(C)n1c2c(c3c(N)ncnc31)-c1noc(C3CC3)c1[C@@H](O)[C@H](C)C2 (single isomer, unassigned) [Example 64] | 169 | 47 | 182 | 90 | 119 | 76 | 39 |
| CC(C)n1c2c(c3c(N)ncnc31)-c1noc(C3CC3)c1[C@H](O)[C@@H](C)C2 (single isomer, unassigned) [Example 65] | 64 | 45 | 163 | 290 | 621 | 133 | 43 |
| Nc1ncnc2c1c1c(n2C2CCCC2)CCC(O)c2c-1noc2C1CC1 (single isomer, unassigned) [Example 124] | 89 | 19 | 80 | 33 | 44 | 49 | 24 |
| Nc1ncnc2c1c1c(n2C2CCCC2)CC[C@@H](O)c2c-1noc2C1CC1 (single isomer, unassigned) [Example 125] | 41 | 7 | 19 | 16 | 16 | 19 | 11 |
| Nc1ncnc2c1c1c(n2C(CF)CF)CC[C@H](O)c2c-1noc2C1CC1 (single isomer, unassigned) [Example 126] | 15 | 5 | 30 | 26 | 29 | 9 | 6 |
| Nc1ncnc2c1c1c(n2C(CF)CF)CC[C@@H](O)c2c-1noc2C1CC1 (single isomer, unassigned) [Example 127] | 28 | 9 | 21 | 52 | 57 | 23 | 6 |
| C[C@H](n1c2c(c3c(N)ncnc31)-c1noc(C3CC3)c1[C@@H](O)CC2)C(F)(F)F (single isomer, unassigned) [Example 146, 2,2,2-trifluoroacetate] | 43 | 63 | 87 | 68 | 98 | 116 | 26 |
| C[C@@H](n1c2c(c3c(N)ncnc31)-c1noc(C3CC3)c1[C@H](O)CC2)C(F)(F)F (single isomer, unassigned) [Example 147, 2,2,2-trifluoroacetate] | 74 | 21 | 32 | 90 | 56 | 94 | 14 |
| CC(C)n1c2c(c3c(N)ncnc31)-c1noc(C3CC3)c1C(=O)NC2 [Example 19, 11-amino-3-cyclopropyl-7-isopropyl-6,7-dihydroisoxazolo[4,3-c]pyrimido[5′,4′:4,5]pyrrolo[3,2-e]azepin-4(5H)-one 2,2,2-trifluoroacetate] | 103 | 53 | 202 | 184 | 262 | 215 | 45 |
| CC(C)n1c2c(c3c(N)ncnc31)-c1noc(C3CC3)c1C(=O)N(C)C2 [Example 20, 11-amino-3-cyclopropyl-7-isopropyl-5-methyl-6,7-dihydroisoxazolo[4,3-c]pyrimido[5′,4′:4,5]pyrrolo[3,2-e]azepin-4(5H)-one] | 135 | 28 | 254 | 111 | 160 | 123 | 53 |
| CC(C)n1c2c(c3c(N)ncnc31)-c1noc(C3CC3)c1S(=O)(=O)CC2 [Example 23, 11-amino-3-cyclopropyl-7-isopropyl-6,7-dihydro-5H-isoxazolo[4″,3″:2′,3′]thiepino[4′,5′:4,5]pyrrolo[2,3-d]pyrimidine 4,4-dioxide 2,2,2-trifluoroacetate] | 63 | 20 | 189 | 107 | 133 | 54 | 18 |
| CC(=O)N1Cc2c(noc2C2CC2)-c2c(n(C(C)C)c3ncnc(N)c23)C1 [Example 36, 1-(11-amino-3-cyclopropyl-7-isopropyl-6,7-dihydroisoxazolo[4,3-c]pyrimido[5′,4′:4,5]pyrrolo[3,2-e]azepin-5(4H)-yl)ethan-1-one 2,2,2-trifluoroacetate] | 130 | 53 | 235 | 255 | 144 | 217 | 58 |
| CC1Cc2c(c3c(N)ncnc3n2C(C)C)-c2noc(C3CC3)c2C1=O (stereo not drawn) [Example 60, 11-amino-3-cyclopropyl-7-isopropyl-5-methyl-6,7-dihydroisoxazolo[4″,3″:6′,7′]cyclohepta[1′,2′:4,5]pyrrolo[2,3-d]pyrimidin-4(5H)-one] | 45 | 29 | 98 | 101 | 157 | 40 | 21 |
